{
  "source": "patent US20240190872A1",
  "about": "“FABI INHIBITORS FOR GRAM-NEGATIVE PATHOGENS” (THE BOARD OF TRUSTEES OF THE UNIVERSITY OF ILLINOIS, priority 2021, published 2024)",
  "key": {"A. baumannii AR-299": {"tested_on": "A. baumannii AR-299", "test": "Neutropenic mouse thigh infection", "format": "in vivo, CD-1 mice", "settings": "50 mg/kg, intramuscular (2, 6, and 11 h post-infection), 26 h", "experimental": "(§1) With formulation, MTD, and pharmacokinetic data in hand, the efficacy of fabimycin was evaluated in murine infection models. To start, a comparative assessment was made of fabimycin and Debio-1452-NH3 in two murine neutropenic infection models using a dosing regimen that is at the MTD for Debio-1452-NH3 but below the MTD for fabimycin (three doses, intramuscular, at 50 mg/kg).\n(§2) Chart 1. Summary of Fabimycin in vivo models."}, "in vitro [1]": {"test": "in vitro", "settings": "mouse, plasma, Plasma stability, t1/2, Mouse"}, "CYP 2D6": {"target": "CYP 2D6 (Homo sapiens (Human), UniProt P10635)", "sequence (P10635 whole entry)": "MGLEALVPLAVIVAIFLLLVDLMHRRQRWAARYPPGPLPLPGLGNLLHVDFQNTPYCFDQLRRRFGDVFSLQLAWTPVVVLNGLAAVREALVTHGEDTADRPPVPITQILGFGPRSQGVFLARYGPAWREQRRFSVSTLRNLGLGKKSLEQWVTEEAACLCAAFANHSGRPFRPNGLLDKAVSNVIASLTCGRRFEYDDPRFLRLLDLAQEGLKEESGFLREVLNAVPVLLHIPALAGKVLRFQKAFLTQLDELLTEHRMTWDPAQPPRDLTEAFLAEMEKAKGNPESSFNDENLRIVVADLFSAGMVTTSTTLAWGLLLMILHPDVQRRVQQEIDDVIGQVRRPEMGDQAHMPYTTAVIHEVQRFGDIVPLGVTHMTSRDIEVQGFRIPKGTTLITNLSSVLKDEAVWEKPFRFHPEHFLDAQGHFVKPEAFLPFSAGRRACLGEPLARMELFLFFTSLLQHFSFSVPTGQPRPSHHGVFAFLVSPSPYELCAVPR", "test": "biochemical"}, "A. baumannii FabI": {"target": "A. baumannii FabI (Acinetobacter baumannii, UniProt D0CAD5)", "sequence (D0CAD5 1-288)": "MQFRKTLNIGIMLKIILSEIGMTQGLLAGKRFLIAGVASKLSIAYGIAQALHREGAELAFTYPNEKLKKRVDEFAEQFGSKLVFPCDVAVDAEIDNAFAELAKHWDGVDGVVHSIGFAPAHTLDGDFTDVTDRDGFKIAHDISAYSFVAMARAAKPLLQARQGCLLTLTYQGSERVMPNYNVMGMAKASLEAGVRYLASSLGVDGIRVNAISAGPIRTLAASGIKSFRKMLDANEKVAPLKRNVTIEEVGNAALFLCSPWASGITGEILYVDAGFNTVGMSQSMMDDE", "test": "biochemical"}, "A. baumannii AR-88": {"tested_on": "A. baumannii AR-88", "test": "Neutropenic mouse thigh infection", "format": "in vivo, female BALB/c mice", "experimental": "FIG. 7. […] A) Neutropenic mouse thigh infection model initiated in female BALB/c mice with A. baumannii AR-88 (1.36×10^5 CFU per mouse intramuscular, left thigh) were treated with vehicle (5 mice) or fabimycin (10 mice) four times a day (75 mg/kg intravenously) and bacterial burden evaluated at 26 h post-infection. B) Neutropenic mouse thigh infection initiated in CD-1 mice with S. aureus USA300 LAC (2.3×10^6 CFU per mouse intramuscular in thigh) were treated with vehicle (8 mice) or FabI inhibitor (8 mice per group) 2 and 7 h post-infection (5 mg/kg retro-orbital IV), and the bacterial burden was evaluated 24 h post-infection.\nas §1, §2"}, "Hepatocyte stability": {"test": "Hepatocyte stability", "format": "in vitro ADME"}, "CYP 2C19": {"target": "CYP 2C19 (Homo sapiens (Human), UniProt P33261)", "sequence (P33261 whole entry)": "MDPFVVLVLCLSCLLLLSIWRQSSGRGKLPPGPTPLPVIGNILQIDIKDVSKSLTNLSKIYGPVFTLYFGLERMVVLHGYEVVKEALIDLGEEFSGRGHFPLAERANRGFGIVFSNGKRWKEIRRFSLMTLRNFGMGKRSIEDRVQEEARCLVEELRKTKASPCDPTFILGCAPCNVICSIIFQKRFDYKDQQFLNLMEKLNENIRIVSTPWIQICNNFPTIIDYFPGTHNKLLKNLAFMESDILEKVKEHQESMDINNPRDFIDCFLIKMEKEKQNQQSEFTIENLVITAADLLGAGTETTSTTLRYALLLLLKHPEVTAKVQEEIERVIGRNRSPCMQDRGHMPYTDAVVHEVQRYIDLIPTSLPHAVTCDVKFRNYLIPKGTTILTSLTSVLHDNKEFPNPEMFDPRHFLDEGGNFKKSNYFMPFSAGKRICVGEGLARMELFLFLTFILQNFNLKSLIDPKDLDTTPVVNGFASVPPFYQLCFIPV", "test": "biochemical"}, "in vitro [2]": {"test": "in vitro", "settings": "dog"}, "E. coli AR 0048": {"tested_on": "E. coli AR 0048", "test": "microbe, parasite or virus in culture", "format": "cell-based", "settings": "Escherichia coli, AR0048, read-out: MIC E. coli AR 0048, clinical isolate", "in_short": "(§3)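 Susceptibility values come from triplicate biological repeats of a CLSI-style broth dilution assay using cation-adjusted Mueller-Hinton medium.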"}, "K. pneumoniae AR 0113": {"tested_on": "K. pneumoniae AR 0113", "test": "microbe, parasite or virus in culture", "format": "cell-based", "settings": "Klebsiella pneumoniae, AR0113, read-out: MIC K. pneumoniae AR 0113, clinical isolate", "in_short": "as §3"}, "K. pneumoniae AR 0066": {"tested_on": "K. pneumoniae AR 0066", "test": "microbe, parasite or virus in culture", "format": "cell-based", "settings": "Klebsiella pneumoniae, AR0066, read-out: MIC K. pneumoniae AR 0066, clinical isolate", "in_short": "as §3"}, "A. baumannii AR 0313": {"tested_on": "A. baumannii AR 0313", "test": "microbe, parasite or virus in culture", "format": "cell-based", "settings": "Acinetobacter baumannii, AR0313, read-out: MIC A. baumannii AR 0313, clinical isolate", "in_short": "as §3"}, "A. baumannii AR 0273": {"tested_on": "A. baumannii AR 0273", "test": "microbe, parasite or virus in culture", "format": "cell-based", "settings": "Acinetobacter baumannii, AR0273, read-out: MIC A. baumannii AR 0273, clinical isolate", "in_short": "as §3"}, "A. baumannii AR 0299": {"tested_on": "A. baumannii AR 0299", "test": "microbe, parasite or virus in culture", "format": "cell-based", "settings": "Acinetobacter baumannii, AR0299, read-out: MIC A. baumannii AR 0299, clinical isolate", "in_short": "as §3"}},
  "data": [
    {"smiles": "Cc1c(CN(C)C(=O)/C=C/c2cnc3c(c2)CC[C@H](N)C(=O)N3)oc2ccccc12", "note": "[(S)-11, (S,E)-3-(7-amino-8-oxo-6,7,8,9-tetrahydro-5H-pyrido[2,3-b]azepin-3-yl)-N-methyl-N-((3-methylbenzofuran-2-yl)methyl)acrylamide]", "values": [
      {"measurement": "log reduction relative to the vehicle", "setting": "A. baumannii AR-299", "result": 2.3, "unit": "log"},
      {"measurement": "half-life", "setting": "in vitro [1]", "result": 1.38, "unit": "h"},
      {"measurement": "IC50", "setting": "CYP 2D6", "result": 65, "unit": "µM"},
      {"measurement": "fold change in Ki^app relative to Debio-1452-NH3", "setting": "A. baumannii FabI; A. baumannii FabI, 3 vs. 114 nM", "result": "> 30", "unit": "fold"},
      {"measurement": "Ki", "setting": "A. baumannii FabI; purified FabI, apparent inhibition constant, read-out: A. baumannii FabI Ki^app", "result": 0.003, "unit": "µM"},
      {"measurement": "fold more potent than (R)-11 against A. baumannii FabI", "setting": "A. baumannii FabI; relative to opposite enantiomer (R)-11", "result": "~30", "unit": "fold"},
      {"measurement": "Plasma stability, t1/2, Mouse", "result": 1.38, "unit": "h"},
      {"measurement": "log reduction relative to the vehicle", "setting": "A. baumannii AR-88; 75 mg/kg IV, QID, 26 h", "result": 1.75, "unit": "log"},
      {"measurement": "reduction of bacterial burden", "setting": "A. baumannii AR-88; NDM-1 containing A. baumannii, neutropenic thigh", "result": "~2 log(CFU/thigh)"},
      {"measurement": "Hepatocyte stability, Rat", "setting": "Hepatocyte stability", "result": 0.9, "unit": "μL/min/million cells"},
      {"measurement": "stability in mouse plasma (in words)", "setting": "Plasma stability", "result": "considerable instability"},
      {"measurement": "IC50", "setting": "CYP 2C19", "result": 60, "unit": "µM"},
      {"measurement": "efflux ratio", "setting": "in vitro [2]; MDCK-MDR1", "result": 9.4},
      {"measurement": "Papp", "setting": "in vitro [2]; MDCK-MDR1, MDR1-MDCK Permeability Papp A:B", "result": 6, "unit": "nm/s"},
      {"measurement": "Papp", "setting": "in vitro [2]; MDCK-MDR1, MDR1-MDCK Permeability Papp B:A", "result": 57, "unit": "nm/s"},
      {"measurement": "MIC", "setting": "E. coli AR 0048", "result": 2, "unit": "mg/L"},
      {"measurement": "MIC", "setting": "K. pneumoniae AR 0113", "result": 4, "unit": "mg/L"},
      {"measurement": "MIC", "setting": "K. pneumoniae AR 0066", "result": 4, "unit": "mg/L"},
      {"measurement": "MIC", "setting": "A. baumannii AR 0313", "result": 4, "unit": "mg/L"},
      {"measurement": "MIC", "setting": "A. baumannii AR 0273", "result": 4, "unit": "mg/L"},
      {"measurement": "MIC", "setting": "A. baumannii AR 0299", "result": 2, "unit": "mg/L"}
    ]}
  ]
}
